{
  "source": "patent US11851381B2",
  "about": "“Application of farnesene in preparing plant-derived urease inhibitor” (priority 2022, dated 2023)",
  "key": {"[1]": {"molecular_target": "T1, Canavalia ensiformis urease (Canavalia ensiformis, UniProt P07374)", "T1 construct": "purchased Aladdin Company", "T1 sequence (P07374 whole entry, looked up)": "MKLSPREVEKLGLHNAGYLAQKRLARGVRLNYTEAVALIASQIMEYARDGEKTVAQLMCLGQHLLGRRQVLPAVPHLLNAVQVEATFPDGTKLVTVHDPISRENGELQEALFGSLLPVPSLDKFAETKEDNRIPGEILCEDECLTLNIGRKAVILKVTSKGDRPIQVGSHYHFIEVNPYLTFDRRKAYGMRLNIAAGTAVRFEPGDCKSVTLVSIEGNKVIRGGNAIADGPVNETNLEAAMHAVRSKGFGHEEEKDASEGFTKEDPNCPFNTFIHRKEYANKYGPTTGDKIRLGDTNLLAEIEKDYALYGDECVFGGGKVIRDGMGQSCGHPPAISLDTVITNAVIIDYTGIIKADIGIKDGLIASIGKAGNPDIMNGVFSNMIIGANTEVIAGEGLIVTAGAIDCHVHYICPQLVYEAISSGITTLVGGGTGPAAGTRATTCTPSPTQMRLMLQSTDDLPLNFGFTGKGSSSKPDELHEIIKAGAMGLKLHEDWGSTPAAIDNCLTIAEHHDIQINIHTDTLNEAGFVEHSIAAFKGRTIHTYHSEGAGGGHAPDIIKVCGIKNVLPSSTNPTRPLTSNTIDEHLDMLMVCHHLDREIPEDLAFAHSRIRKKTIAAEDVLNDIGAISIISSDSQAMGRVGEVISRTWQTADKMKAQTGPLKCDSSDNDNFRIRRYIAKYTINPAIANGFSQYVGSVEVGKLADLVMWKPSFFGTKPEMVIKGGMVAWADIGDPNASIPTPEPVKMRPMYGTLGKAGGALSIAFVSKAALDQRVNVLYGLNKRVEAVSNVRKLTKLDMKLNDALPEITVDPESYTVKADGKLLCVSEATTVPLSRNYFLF", "assay_type": "biochemical", "settings": "incubated 20 min at 37° C., HEPES pH 7.5; unit inferred; read-out: median inhibitory concentration (IC50) for inhibiting the activity of Canavalia ensiformis urease", "quoted_text": "Acetohydroxamic acid is weighed, and mixed with 20 mM of HEPES buffer solution (with pH of 7.5) to prepare an acetohydroxamic acid solution of 0.1 μM, 0.5 μM, 1 μM, 3 μM, 5 μM, 10 μM, 20 μM, 40 μM, 60 μM and 80 μM, and the solution is cold stored in a brown bottle in a refrigerator at 4° C. for standby use;\nCanavalia ensiformis urease is weighed, and dissolved in 20 mM of HEPES buffer solution (with pH of 7.5) to prepare the Canavalia ensiformis urease solution with a concentration of 10 U/mL, and the prepared solution is cold stored in the refrigerator at 4° C. for standby use. […]\nA. 50 μL of the above prepared farnesene solution with different concentrations is collected, added with 100 μL of Canavalia ensiformis urease solution respectively, and uniformly mixed to obtain mixed solutions, and the mixed solutions are incubated for 20 min at 37° C.; 100 μL of urea solution is added for light avoidance reaction for 20 min at a room temperature; the Berthelot developing solution A is added and uniformly mixed, and the Berthelot developing solution B is added for development for 10 min to obtain an incubation solution; and 250 μL of incubation solution is absorbed onto a 96-well plate, an OD absolute value at 595 nm is determined by a microplate reader, and three times of test are carried in parallel for each concentration. […]"}, "soil urease": {"test_system": "soil urease", "experiment": "Inhibition of soil urease activity in incubated brown soil", "assay_type": "biochemical", "experimental": "(§1) (1) Pre-culture of soil: air-dried soil (brown soil) is filtered by a 2 mm sieve and then placed in a culture dish, distilled water accounting for 15% of the weight of the dried soil is added, after the dried soil is uniformly and thoroughly immersed with water, the soil is pre-cultured for 2 weeks in a constant temperature incubator at a constant temperature of 25° C. to restore the biological activity of the soil, and ventilation and constant moisture are kept in the pre-culture period.\n(2) The pre-cultured soil is weighed, and added with DMSO solutions of farnesene and acetohydroxamic acid respectively, the concentrations of the farnesene and acetohydroxamic acid are 50 mg/kg (calculated by the dried soil) respectively, and a farnesene-soil mixture and an acetohydroxamic acid-soil mixture are obtained. 5 g of farnesece-soil mixture and 5 g of acetohydroxamic acid-soil mixture are weighed respectively and placed into glass test tubes (length 15 cm×diameter 15 mm), then 5 mL of distilled water is added respectively into the test tubes to make the soil located below a liquid surface, the mixtures in the test tubes are shaken by a vortex shaker and uniformly mixed; and at the same time, the pre-cultured soil without the inhibitor is used as control treatment (CK) and cultured in the constant temperature incubator at a constant temperature of 25° C., and sampling is carried out respectively on the 1st day, the 7th day, 14th day and 28th day after the culture (water is supplemented every day according to a weight method so as to keep a total weight of the test tube constant) for determination of urease activity. […]"}, "[2]": {"test_system": "soil urease-generating bacteria", "experiment": "Inhibition of soil urease-generating bacteria (bacterial ureC gene copy number by quantitative PCR)", "settings": "urea 200 mg N kg^-1 dry soil, farnesene 0.5%, 2% of pure nitrogen", "experimental": "as §1, with “at” for “at a constant temperature of”, “period, thereby obtaining the pre-cultured soil.” for “period.”\n(2) The pre-cultured soil is weighed; urea is added according to a concentration of 200 mg N kg^−1 of dry soil; the farnesene is added according to concentrations of pure nitrogen of 0 (U), 0.5% (U+0.5%), 1% (U+1%) and 2% (U+2%); and at the same time, the pre-cultured soil without urea and farnescene is used as control treatment, and 5 treatments are carried out and repeated for 4 times. In each treatment, the required urea and farnesene are dissolved in a certain amount of deionized water according to a required amount, then the solution is uniformly mixed with the pre-cultured soil that is equivalent to 50 g of air-dried soil by a vacuum method, the water content of the soil is enabled to reach 60% of the field water holding capacity (WHC), and finally the solution is placed in a 150 mL centrifugal pipe with a cover. […]"}, "corns": {"test_system": "corns", "experiment": "Pot experiment: combined application of farnesene and urea on growth of corns", "assay_type": "in vivo, corn", "settings": "potted corns; for Increase of dry weight / Yield increase: versus control without farnesene", "from_the_text": "Soil required for pot experiment is brown soil collected from Shenyang. 13 g of nitrogen phosphorus potassium fertilizer is used as base fertilizer to be applied in all layers according to a ratio of 26-10-12; and the fertilizer with farnescene and the fertilizer without farnescene are used as control, and the application amount is 0.5%, 1% and 5% of a pure nitrogen content in the fertilizer. Nitrogen fertilizer for test is urea, phosphorus fertilizer is calcium superphosphate, and potassium fertilizer is potassium sulfate. Each treatment is repeated for 5 times. The pretreated soil (filtered by a 5 mm sieve to remove stone pieces, roots, etc.) that is equivalent to 16 kg of air-dried oil is laid on square thick plastic paper with an edge length of 2 m, then the required fertilizer and inhibitor (if necessary) that are uniformly mixed in advance are applied uniformly to the soil, the paper is folded for multiple times by a diagonal folding method, in this period, it is necessary to lay the soil on the paper and then fold the paper, finally the soil is sufficiently and uniformly mixed with the fertilizer and inhibitor, the obtained mixture is transferred into a plastic pot (with a diameter of 28 cm and a height of 34 cm), and finally irrigation is carried out to make the water content of the soil reach 60% of the maximal field water holding capacity. Finally, a height about 5 cm is reserved between the soil surface and the top end of the pot. Three corn seeds are sowed in each pot in a sowing depth of 5 cm, and after the emergence (about 15 days), thinning is carried out to make each pot have one corn. Finally, all potted corns are carried onto a four-wheeled platform lorry and finally transferred into a net house. When in rainy days, the potted corns are transferred into a shed. The corns are watered manually every day in a growth period so as to maintain the soil moisture. The planting density is about 4000 corns per Mu, and a dry weight and yield of the corn are determined in autumn."}, "[3]": {"settings": "farnesene 0.5% of pure nitrogen content in the fertilizer"}, "[4]": {"settings": "farnesene 0.5% of pure nitrogen content"}, "[5]": {"settings": "farnesene 1% of pure nitrogen content in the fertilizer"}, "[6]": {"settings": "farnesene 1% of pure nitrogen content"}, "[7]": {"settings": "farnesene 5% of pure nitrogen content in the fertilizer"}, "[8]": {"settings": "farnesene 5% of pure nitrogen content"}},
  "data": [
    {"substance": "farnesene", "values": [
      {"measurement": "IC50", "setting": "[1]", "result": "10.3 ± 0.25", "unit": "µM"},
      {"measurement": "duration of the inhibition effect on soil urease", "setting": "soil urease; 50 mg/kg dried soil, brown soil, 25° C.", "result": 14, "unit": "days"},
      {"measurement": "inhibition of the activity of soil urease", "setting": "soil urease; 50 mg/kg dried soil, brown soil, 25° C., sampled day 1, 7, 14, 28", "result": "can effectively inhibit the activity of soil urease"},
      {"measurement": "inhibition effect on soil urease compared with acetohydroxamic acid", "setting": "soil urease; both at 50 mg/kg dried soil", "result": "equivalent to that of the commercial inhibitor acetohydroxamic acid"},
      {"measurement": "duration of the inhibition effect on urease-generating bacteria", "setting": "[2]", "result": 14, "unit": "days"},
      {"measurement": "inhibition of the proliferation of urease-generating bacteria (copy number of bacterial ureC genes)", "setting": "[2]; 25° C.", "result": "can effectively inhibit the proliferation of the urease-generating bacteria"},
      {"measurement": "Dry weight", "setting": "corns; [3]", "result": 16006.3, "unit": "kg ha^−1"},
      {"measurement": "Yield", "setting": "corns; [3]", "result": 8004.2, "unit": "kg ha^−1"},
      {"measurement": "Increase of dry weight", "setting": "corns; [4]", "result": 4.1, "unit": "%"},
      {"measurement": "Yield increase", "setting": "corns; [4]", "result": 4.5, "unit": "%"},
      {"measurement": "Dry weight", "setting": "corns; [5]", "result": 16922.8, "unit": "kg ha^−1"},
      {"measurement": "Yield", "setting": "corns; [5]", "result": 8521.3, "unit": "kg ha^−1"},
      {"measurement": "Increase of dry weight", "setting": "corns; [6]", "result": 8.6, "unit": "%"},
      {"measurement": "Yield increase", "setting": "corns; [6]", "result": 10.1, "unit": "%"},
      {"measurement": "Dry weight", "setting": "corns; [7]", "result": 17371.5, "unit": "kg ha^−1"},
      {"measurement": "Yield", "setting": "corns; [7]", "result": 8714.3, "unit": "kg ha^−1"},
      {"measurement": "Increase of dry weight", "setting": "corns; [8]", "result": 10.2, "unit": "%"},
      {"measurement": "Yield increase", "setting": "corns; [8]", "result": 12.2, "unit": "%"}
    ]}
  ]
}
